Test results from patent US20080262228A1, “Metabolites of 5-fluoro-8- quinoline and methods of preparation and uses thereof” (Wyeth, priority 2006, published 2008).

Tests used:
[1] = Metabolite profiling in liver microsomes and S9; type: in vitro ADME, rat, dog, monkey, human; details: liver microsomes and S9, 10 μM COMPOUND I, 30 min; species letters not defined
Method: Microsomal incubations for metabolite profiling were similar to those described above for intrinsic clearance determination (see Table 1). Aliquots of COMPOUND I (10 μL), dissolved in DMSO:methanol (1:9), were added to a 96-well plate containing phosphate buffer, and MgCl2 and the liver microsomes at 37° C. using the same automation apparatus as for the stability study described hereinabove. The reactions were initiated by the addition of the UDPGA and NADPH generating system. The final incubation volume for all samples was 1 mL and the length of incubation was 30 min. […] Three 250 μL aliquots were transferred to a 96-well plate containing 900 μL acetonitrile to precipitate the protein. […] The samples were then reconstituted in 150 μL of 20% methanol in water. The three aliquots for each sample were pooled and analyzed by LC/MS.
S9 incubation buffer and cofactors were chosen to allow N-acetylation and carbamoyl glucuronidation in addition to oxidative and glucuronidation pathways possible in liver microsomes. Incubations of sulfamethazine and SCA-136 with liver S9 were used as positive controls for N-acetylation and carbamoyl glucuronidation, respectively. Following a 30 min. incubation, 750 μL from each sample were added to 900 μL acetonitrile. Following centrifugation and evaporation of the supernatant, the samples were reconstituted in 450 μL of 20% methanol in water for analysis by HPLC/UV and LC/MS (see below).
The HPLC system used for mass spectrometric analysis was an Agilent 1100 HPLC (Agilent Technologies, Palo Alto, Calif.) equipped with a binary pump and a diode array UV detector. The UV detector was set to monitor 190-400 nm. Separations were accomplished on a Luna C18 column (150×2.1 mm, 5 μm) (Phenomenex Incorporated, Torrance, Calif.).
The mass spectrometer used for metabolite characterization was a Finnigan LCQ Deca ion trap mass spectrometer (Thermo Electron Corp.). […] Full scan and data dependent MS2 and MS3 mass spectra were recorded. Finnigan Xcalibur software (version 1.3) was used for control of equipment and recording of data from UV and LC/MS analyses.
Chromatographic profiles of COMPOUND I (10 μM) metabolites in incubations with liver microsomes in the presence of NADPH are presented in FIG. 1. Chromatographic profiles of COMPOUND I (10 μM) metabolites in incubations with liver microsomes in the presence of NADPH and UDPGA are presented in FIG. 2. Chromatographic profiles of COMPOUND I (10 μM) metabolites in incubations with liver S9 in the presence of NADPH, UDPGA and acetyl coenzyme A (CoA) are presented in FIG. 3. In incubations containing NADPH, UDPGA and acetyl CoA, fourteen Phase I metabolites (M1, M6, M8, M12, M13, M14, M15, M16, M17, M18, M20, M21, M22 and M23) and six Phase II metabolites (M2, M3, M5, M7, M9 and M10) were observed. In incubations without cofactors, no metabolites were observed.
LC/MS analysis was conducted on extracts of mouse, rat, monkey and human liver microsomes and S9. The mass spectral data for the characterized COMPOUND I metabolites are discussed below.

[2] = In vivo metabolism of [14C]COMPOUND I in Sprague-Dawley rats, single oral 5 mg/kg dose; design: species or system rat; details: for Chromatographic Distribution of Radioactivity in Pooled Plasma Samples: 5 mg/kg oral [14C]COMPOUND I
Method: Dose preparation, animal dosing, and specimen collection were performed at Wyeth Research, Collegeville, Pa. The vehicle contained 2% (w/v) polysorbate 80, NF and 0.5% (w/v) methylcellulose (4000 cps) in water. [^14C]COMPOUND I trisuccinate salt (36.6 mg) and non-labeled COMPOUND I trisuccinate salt (26.7 mg) were dissolved in 1 mL of ethanol and suspended in 35 mL of the vehicle with stirring. The target [^14C]COMPOUND I concentration was approximately 1 mg/mL as free base and 70 μCi/mL with a target specific activity of 70 μCi/mg. Three pre- and post-dose aliquots (100 μL) were taken for the determination of radiochemical purity, drug and radioactivity concentrations and specific activity (see below).
Male rats weighing from 323 to 354 g and female rats weighing from 270 to 317 g at the time of dosing were purchased from Charles River Laboratories (Wilmington, Mass.). Non-fasted rats were given a single 5 mg/kg (˜350 μCi/kg) dose of [^14C]COMPOUND I at a volume of 5.0 mL/kg via intragastric gavage. Three rats were dosed for each time point. Animals were provided Purina rat chow and water ad libitum, and were kept individually in metabolism cages.
Blood samples were collected at 1, 3, 6 and 24 hr from male rats and at 1 and 3 hr from female rats after dose administration by cardiac puncture into tubes containing EDTA as the anticoagulant and placing them on ice. Triplicate aliquots (50 μL) of whole blood were removed and plasma was immediately obtained from the remaining blood by centrifugation at 4° C. Whole brain samples were collected after saline perfusion at 1, 3, 6 and 24 hr post-dose from male rats and at 1 and 3 hr post-dose from female rats. Urine samples were collected on dry ice from male rats at intervals of 0-6 and 6-24 hr post-dose. Feces were collected from male rats at 0-24 hr post-dose at room temperature. The biological specimens and aliquots of the dose suspension were stored at approximately −70° C. until analysis.
Triplicate aliquots of diluted dose (20 μL), dose fractions (10 μL), and plasma (50 μL) and urine (100 μL) from individual rats were analyzed for radioactivity concentrations. Radioactivity determinations were made with a Tri-Carb Model 3100 TR liquid scintillation counter (LSC) (Perkin Elmer) using 5 mL of Ultima Gold as the scintillation fluid.
Brain and fecal samples from individual rats were weighed and homogenized in water at a volume-to-weight ratio of about 3:1 and 5:1, respectively, with a Polytron PT homogenizer at ice-cold temperature. Duplicate aliquots of blood (50 μL), brain homogenates (0.2 g) and fecal homogenates (0.2 g) were placed on Combusto-cones with Combusto-pads and allowed to dry overnight. Samples were combusted with a model 307 Tri-Carb Sample Oxidizer, equipped with an Oximate-80 Robotic Automatic Sampler (Perkin Elmer). The liberated ^14CO2 was trapped with Carbo-Sorb E carbon dioxide absorber, mixed with PermaFluor® E^+ liquid scintillation cocktail, and counted in a Tri-Carb Model 3100 TR/LL liquid scintillation counter (Perkin Elmer).
Plasma samples were pooled by equal volumes from three animals at each time point (1, 3, 6 and 24 hr for males; 1 and 3 hr for females). Aliquots of 2 mL of pooled plasma were mixed with 2 mL of acetonitrile, placed on ice for about 10 min, and then centrifuged at 4° C. The supernatant was transferred to a clean tube. The protein pellets were extracted two more times with 4 mL of acetonitrile. The supernatants from precipitation and extraction of each sample were pooled, mixed, and evaporated at 22° C. under nitrogen in a TurboVap LV evaporator (Caliper Life Sciences, Hopkinton, Mass.) to about 1.0 mL. The concentrated extract was centrifuged, the supernatant volume measured and the extraction efficiency was determined by analyzing duplicate 10 μL aliquots for radioactivity concentrations.

[3] = Metabolite characterization in cryopreserved hepatocytes; details: hepatocyte incubations, 20 μM; R, rat; D, dog; H, human; Media = decomposition product observed in media control
Method: Pooled male rat, dog, and mixed male and female human cryopreserved hepatocytes were used in this study. The cryopreserved hepatocytes (two vials from each species; three to five million viable cells per vial) were thawed in a 37° C. water bath with gentle shaking until the ice was almost melted. The suspensions from the two individual vials of the same species were immediately transferred to a 50 mL centrifuge tube containing pre-warmed thawing media at 37° C. with gentle handshaking to prevent the cells from settling. The cell suspension was centrifuged at 50 g for 5 min at 4° C. Supernatants were discarded and the pellets were resuspended in pre-warmed incubation media (8 mL) at 37° C. […] [^14C]COMPOUND I (20 μM) was incubated in a 12-well plate containing hepatocyte suspensions at 1.0 mL per well in duplicate (≧1 million viable cells/well) at 37° C. for 1 or 4 hr in the presence of 5% CO2:95% O2. Control incubations without hepatocytes were also run under the same conditions. Positive controls containing [^14C]7-ethoxycoumarin (100 μM) were also incubated under the same conditions, but only for 1 hr. At the end of the incubations, reactions were stopped by adding acetonitrile with 2% acetic acid (1 mL), mixed for 10 min, followed by centrifugation at 4000 rpm for 10 min at 4° C. Aliquots (50 μL) of supernatants were analyzed by HPLC with UV and radioactivity flow detection for metabolite profiling, and by LC/MS for metabolite identification as described in below. To determine extraction recovery, aliquots (20 μL) of supernatants were analyzed for radioactivity content utilizing a Packard Tri-Carb Model 3100 TR liquid scintillation counter and 5 mL of Ultima Gold.
The HPLC system used for mass spectrometric analysis was a Waters Alliance model 2695 HPLC system (Waters Corp). It was equipped with a built-in autosampler and a model 996 diode array UV detector. The UV detector was set to monitor 210-400 nm. The HPLC conditions were the same as those described hereinabove with the following exceptions. […]

Row | Structure (SMILES) | Species (in which the metabolite was characterized) [1] | Chromatographic Distribution of Radioactivity in Pooled Plasma Samples ([2]; female rats, 1 hr) [%] | Chromatographic Distribution of Radioactivity in Pooled Plasma Samples ([2]; female rats, 3 hr) [%] | percent of total plasma radioactivity ([2]; male and female rats, range over time points, 5 mg/kg oral) | Chromatographic Distribution of Radioactivity in Pooled Plasma Samples ([2]; male rats, 1 hr) [%] | Chromatographic Distribution of Radioactivity in Pooled Plasma Samples ([2]; male rats, 3 hr) [%] | Chromatographic Distribution of Radioactivity in Pooled Plasma Samples ([2]; male rats, 6 hr) [%] | Source [3]
1 | COc1cc(N2CCN(C3CCN(c4ccc(OC5OC(C(=O)O)C(O)C(O)C5O)c5cccnc45)CC3)CC2)c2ncccc2c1 (stereo not drawn) [Metabolite M5, Hydroxy desfluoro COMPOUND I glucuonide] | R, D, M, H | 9.6 | 16.2 | 9.6-17.1% | 15.2 | 17.1 | 16.5 | –
2 | COc1cc(N2CCN(C3CCN(c4ccc(O)c5cccnc45)CC3)CC2)c2ncccc2c1 [Metabolite M18, Hydroxy desfluoro COMPOUND I] | R, D, M, H | – | – | – | – | – | – | D (trace), H
